Residues, ends and D or L forms follow the SMILES beside them. *: point of attachment. Cbz = O=C(OCc1ccccc1)*
How the values were obtained:
[1] = biological target: HiBiT-GPER (Homo sapiens, UniProt Q99527); experiment: Nano-BiT binary luminescence complementation, transfected HEK-293 cells, total receptor; type: cell-based; settings: for effect on UI-EP001 / UI-EP002 degradation of HiBiT-GPER: 100 µM UI-EP001 or UI-EP002, 1 hour, MG132 10 µM, chloroquine 100 µM, E2 or aldosterone 100 nM-100 µM
Experimental: FIG. 26. […] HEK-293 cells (ERα^-, GPER^-) were transiently transfected with 50 ng HiBiT-GPER or HiBiT-ER plus pcDNA3.1(+) zeo carrier plasmid. […] (C) Histogram depicting total HiBiT-GPER and HiBiT-ER following a 1-hour treatment at […] drug or control. […] Results shown represent the mean ± S.E. of three independent experiments.
(§1) FIG. 28. […] Total receptor was then measured by binary luminescence complementation in detergent-permeabilized cells. […] Total receptor was then quantified by binary luminescence complementation. Representative luminescence data and mean values and SDs derived from three independent experiments are shown.
(§2) Transient transfections and binary Nano-Bit ™ luminescence assays. Total HiBiT-tagged GPER or ER estrogen receptors were detected in detergent-permeabilized cells by binary luminescence complementation with recombinant LgBit and substrate using the Nano-Glo HiBiT Extracellular Detection system kit (Promega Corporation, Madison, Wl). In brief, HEK293 cells (0.75 × 10^6) were seeded in 35 mm tissue culture dishes and 24 hours later were transiently transfected with 50 ng of HiBiT-GPER or HiBiT-ERa and 950 ng of pcDNA3.1(+) zeo carrier plasmid using Lipofectamine 2000 (Invitrogen, Carlsbad, CA). The next day transfected cells were harvested by trypsinization and seeded at a density of 10^4 cells/well in 96-well poly-L-lysine-coated Greiner white-bottomed microplates. On the following day, cell culture media was aspirated and replaced with 100 µL of serum-free PRF-DF12 containing E2-PROTAC, partial-PROTAC, or vehicle at various concentrations and for indicated time intervals at 37° C. […] Following treatment, total HiBiT-tagged receptor was measured in cells which were permeabilized in 0.05% Triton X-100 using HiBiT complementation reagent consisting of LgBiT protein and Nano-Gio® HiBiT substrate. Luminescence was measured using the Infinite 200 PRO multimode microplate reader from Tecan (Raleigh, NC) and reported as Relative Luminescent Units (RLU). All samples were measured in triplicate and expressed as the mean value plus or minus standard deviation.

[2] = system: ERs (ERa and ERb); experiment: Fluorescence polarization competitive binding with E2-FITC in cytosolic fractions from MCF-7 cells; set-up: species or system human
Experimental: ER binding was measured using cytosolic fractions prepared from MCF-7 cells by fluorescence polarization. MCF-7 (10^6 cells) were detached in EDTA, cell homogenates were prepared using a Dounce homogenizer and subcellular fractions were isolated by differential centrifugation as previously described (Filardo et al, 2002). The protein concentration of each fraction was determined by bichinchoninic acid (BCA) assay (Pierce ™ BCA protein assay kit, Thermo Fisher). For saturation binding assay of the probe, different concentrations of cytosolic fraction were diluted in assay buffer (10 mM Tris-HCl, pH 7.4; 50 mM KCl, 10% glycerol, 0.1 mM dithiothreitol (DTT), 1 ug/mL BGG, 10 nM protease inhibitor cocktail (Roche) to a final volume of 200 uL containing 10 nM Ez-FITC. The mixture was incubated at ambient temperature for 1 hour and interaction of the probe with cytosolic protein was determined by fluorescence polarization (FP). For competitive binding assay, an aliquot of cytosolic fraction and E2-FITC (10 nM final concentration) was mixed and incubated at 4° C. for 1 hour. Then different concentrations of drugs and controls were added to the mixture. The mixture was incubated for an additional hour and then subjected to FP. All samples were measured in triplicate. Negative controls (only cytosolic fraction or only E2-FITC) and positive control (E2-FITC and cytosolic fraction at 100% binding without treatment) were included. Relative binding affinities were expressed as the percentage of FP recorded from treated wells compared to the positive control. FP values in millipolarization units (mP) were measured at ex/em wavelength of 485 nm/530 nm respectively using the Spectra Max plus 384 Microplate Spectrophotometer (Molecular Devices, Sunnyvale, CA) in 96-well, black, flat-bottom microplates (Greiner Bio-One North America, Inc., Monroe, NC). Kd values of the probe were determined by nonlinear regression fitting of the saturation curves, while IC50 values of treatment were determined by nonlinear regression fitting of the competition curves.
In contrast to GPER, ERa and ERb are intracellular receptors that are concentrated in the cytoplasm and in the nucleus. […] A saturation analysis was performed using 10 nM E2-FITC and increasing concentrations of cytosolic protein (FIG. 25D).

[3] = biological target: T1, GPER (Homo sapiens, UniProt Q99527); settings: Filardo et al., 2007; cited from earlier work
T1 sequence (Q99527 whole entry): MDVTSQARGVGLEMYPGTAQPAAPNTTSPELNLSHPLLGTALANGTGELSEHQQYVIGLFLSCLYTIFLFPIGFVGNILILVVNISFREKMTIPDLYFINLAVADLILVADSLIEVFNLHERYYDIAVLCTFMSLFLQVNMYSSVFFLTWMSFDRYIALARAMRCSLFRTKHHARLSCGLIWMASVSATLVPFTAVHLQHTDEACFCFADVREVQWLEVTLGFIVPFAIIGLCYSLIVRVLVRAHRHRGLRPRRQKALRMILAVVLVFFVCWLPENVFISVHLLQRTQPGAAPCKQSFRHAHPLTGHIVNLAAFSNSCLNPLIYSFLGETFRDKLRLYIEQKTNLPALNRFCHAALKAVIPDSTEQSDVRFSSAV

[4] = biological target: T1, GPER; settings: Filardo et al., 2007; cited from earlier work; remark: listed apart in the source
[5] = biological target: T2, HiBiT-ERα (Homo sapiens, UniProt P03372); experiment: Nano-BiT binary luminescence complementation, transfected HEK-293 cells, total receptor; type: cell-based; settings: for effect on UI-EP001 / UI-EP002 degradation of HiBiT-ERα: 100 µM UI-EP001 or UI-EP002, 1 hour, MG132 10 µM, chloroquine 100 µM, E2 or aldosterone 100 nM-100 µM
T2 sequence (P03372 1-595): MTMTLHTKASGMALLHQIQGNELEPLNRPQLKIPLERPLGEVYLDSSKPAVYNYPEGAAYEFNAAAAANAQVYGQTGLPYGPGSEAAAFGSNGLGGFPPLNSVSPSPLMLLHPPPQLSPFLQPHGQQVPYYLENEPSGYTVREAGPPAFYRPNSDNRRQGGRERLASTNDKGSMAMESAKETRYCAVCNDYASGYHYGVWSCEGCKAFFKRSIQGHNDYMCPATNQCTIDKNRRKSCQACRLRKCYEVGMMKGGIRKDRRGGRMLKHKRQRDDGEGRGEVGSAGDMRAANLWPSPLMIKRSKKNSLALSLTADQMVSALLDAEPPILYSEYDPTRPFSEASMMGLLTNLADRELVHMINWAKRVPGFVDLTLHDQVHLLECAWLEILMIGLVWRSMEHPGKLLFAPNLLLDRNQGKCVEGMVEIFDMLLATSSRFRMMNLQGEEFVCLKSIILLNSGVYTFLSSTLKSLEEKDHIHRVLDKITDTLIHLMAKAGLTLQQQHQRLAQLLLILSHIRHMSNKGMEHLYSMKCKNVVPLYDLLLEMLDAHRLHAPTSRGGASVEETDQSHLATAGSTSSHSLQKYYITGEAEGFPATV
Experimental: FIG. 26. […] HEK-293 cells (ERα^-, GPER^-) were transiently transfected with 50 ng HiBiT-GPER or HiBiT-ER plus pcDNA3.1(+) zeo carrier plasmid. […] Results shown represent the mean ± S.E. of three independent experiments.
as §1, §2

[6] = biological target: T1, GPER; experiment: Competitive binding assay in intact SKBR3 cells with E2-FITC as fluoro-tracer (flow cytometry); set-up: endogenous in cells; host or cells: SKBR3 human breast carcinoma cells (ATCC); settings: concentrations as high as 10 mM
[7] = system: SKBR3 cells; experiment: Cell cycle analysis, propidium iodide, flow cytometry; type: cell-based, human; settings: SKBR3, 10 µM, 24 hours
Excerpt: (§3) FIG. 30. E2-PROTACs promote estrogen receptor-dependent G2/M arrest. E2-PROTAC induced G2/M arrest in human breast cancer cell lines expressing membrane and/or intracellular estrogen receptors. […] Fixed cells were permeabilized and dyed with propidium iodide (PI). Cell cycle data were acquired on a flow cytometer and analyzed using Flow-Jo software. Data are expressed as mean ± SEM (n=3). The percentage of cells in each phase were plotted using Prism 8.0.
(§4) Cell cycle analysis. […] Following treatment, cells were harvested by trypsinization and washed twice in ice-cold PBS. Cells were then fixed in 70% ethanol at 4° C. for 30 minutes. Fixed cells were pelleted by centrifugation at 230 g for 5 minutes and the cell pellet was incubated in Krishan’s solution (3.8 mM sodium citrate (Fisher Scientific), 0.014 mM propidium iodide (AnaSpec, Fermont, Ca), 1% NP-40 (Sigma) and 2.0 mg/mL RNase A (Fisher Scientific)) for 30 minutes at 37° C. Cells were then centrifuged and washed in PBS prior to analysis using a FacScallibur flow cytometer. The data from flow cytometry were subjected to further analysis by CellQuest software version 3.3. DNA histograms generated indicate the fractions of the cell population in the sub-G1, G0-G1, S, or G2/M phase of the cell cycle.
(§5) To investigate the biological effect associated with decreased cell viability, cell cycle analysis was performed on the same four cell lines using propidium iodide staining and measured by flow cytometry 24 hours after treatment of cells with 10 µM E2-PROTAC or partial PROTAC (FIG. 30).

[8] = system: MCF-7 cells; experiment: as above; type: cell-based, human; settings: MCF-7, 10 µM, 24 hours
Excerpt: as §3, §4, §5

[9] = system: HCC1806 cells; experiment: as above; type: cell-based, human; settings: HCC1806, 10 µM, 24 hours
Excerpt: as §3, §4, §5

[10] = biological target: T1, GPER; experiment: Immunostaining of endogenous receptors in MCF-7 cells; settings: MCF-7, 1 hour
[11] = biological target: T3, ERα (Homo sapiens, UniProt P03372); experiment: as above; settings: MCF-7, 1 hour
T3 sequence (P03372 1-595): T2 sequence (P03372 1-595)

[12] = biological target: ERβ (Homo sapiens, UniProt Q92731); experiment: as above; settings: MCF-7, 1 hour
Sequence of ERβ (Q92731 whole entry): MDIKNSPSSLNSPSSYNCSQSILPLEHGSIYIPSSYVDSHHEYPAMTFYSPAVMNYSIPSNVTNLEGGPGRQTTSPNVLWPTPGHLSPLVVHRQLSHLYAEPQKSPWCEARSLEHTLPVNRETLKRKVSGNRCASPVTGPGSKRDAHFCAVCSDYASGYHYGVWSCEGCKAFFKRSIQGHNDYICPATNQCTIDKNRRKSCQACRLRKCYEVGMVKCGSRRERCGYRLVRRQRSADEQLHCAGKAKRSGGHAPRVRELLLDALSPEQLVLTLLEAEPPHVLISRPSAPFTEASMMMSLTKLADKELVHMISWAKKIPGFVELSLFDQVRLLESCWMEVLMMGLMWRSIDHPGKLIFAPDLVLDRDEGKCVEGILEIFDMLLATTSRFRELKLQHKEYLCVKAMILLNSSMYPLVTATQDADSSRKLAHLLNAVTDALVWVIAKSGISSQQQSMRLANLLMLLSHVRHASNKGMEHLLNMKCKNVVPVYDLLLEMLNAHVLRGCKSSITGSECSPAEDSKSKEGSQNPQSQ

[13] = biological target: T4, recombinant HA-tagged GPER (Homo sapiens, UniProt Q99527); experiment: HA immunoblot of lysates of HEK293 cells stably expressing HA-tagged GPER; type: cell-based; settings: various concentrations, 16 hr
T4 construct: expressed in transfected cells
T4 sequence (Q99527 whole entry): as the sequence (Q99527 whole entry) above
Experimental: FIG. 38. […] HEK293 cells stably expressing recombinant HA-tagged GPER were treated with various concentrations of CIMBA-PROTAC-001 or partial PROTAC for 16 hr and then lysed in detergent. Equivalent amounts of protein lysate were resolved in SDS-polyacrylamide gels and then electrotransferred onto PVDF […] membranes. Membranes were probed with rabbit HA antibodies, top. HA- antibodies were stripped from the membrane at low pH and the membrane was then probed with […] transferrin receptor (TFNR) antibodies as a specificity and loading control.

[14] = increasing doses, 1 hour, partial PROTAC 100 µM

Sequence of HiBiT-GPER (Q99527 whole entry): as above

CCN(CC)CCCC(C)Nc1ccnc2cc(Cl)ccc12 (stereo not drawn) [chloroquine, chloroquine diphosphate]
effect on UI-EP001 / UI-EP002 degradation of HiBiT-GPER [1]: had no such effect

C[C@]12CC[C@@H]3c4ccc(O)cc4C[C@@H](CCCCCCCCC[S+]([O-])CCCC(F)(F)C(F)(F)F)[C@H]3[C@@H]1CC[C@@H]2O (stereo partly drawn) [Fulvestrant]
relative binding activity [3]: 5%
concentration at which it functions as a GPER agonist [4]: 500 nM

Cc1ncsc1-c1ccc(CNC(=O)C2CC(O)CN2C(=O)C(NC(=O)COCCOCCOCCOCC(=O)O)C(C)(C)C)cc1 (stereo not drawn) [Partial PROTAC, reference compound]
change of HiBiT-ERα [5, 14]: did not show any significant decrease
receptor present after treatment ([1]; 100 µM, 8 hrs, recombinant receptor, GPER or ER not specified): 83%
change of HiBiT-GPER [1, 14]: did not show any significant decrease
competition for E2-FITC binding [6]: unable to compete for E2-FITC binding
cell cycle distribution [7]: much less significant shift
cell cycle distribution [8]: much less significant shift
cell cycle distribution [9]: much less significant shift
intracellular GPER expression [10]: did not impact
nuclear ERα expression [11]: did not impact
nuclear ERβ expression [12]: did not impact

C[C@]12CCC(=O)C=C1CC[C@@H]1[C@@H]2[C@@H](O)C[C@]2(C=O)[C@@H](C(=O)CO)CC[C@@H]12 [aldosterone]
effect on UI-EP001 / UI-EP002 degradation of HiBiT-ERα [5]: not aldosterone was capable of blocking
effect on UI-EP001 / UI-EP002 degradation of HiBiT-GPER [1]: not aldosterone was capable of blocking

COc1ccc(CNc2ccc(C(C)C)cc2N2CCN(C(=O)COCCOCCOCCOCC(=O)NC(C(=O)N3CC(O)CC3C(=O)NCc3ccc(-c4scnc4C)cc3)C(C)(C)C)CC2)cc1 (stereo not drawn) [CIMBA-PROTAC-001]
degradation of recombinant GPER [13]: degrades recombinant GPER

CC(C)C[C@@H](C=O)NC(=O)[C@H](CC(C)C)NC(=O)[C@H](CC(C)C)NC(=O)OCc1ccccc1 [MG132] (Cbz-Leu-Leu-Leu-aldehyde)
effect on UI-EP001 / UI-EP002 degradation of HiBiT-ERα [5]: reversed
effect on UI-EP001 / UI-EP002 degradation of HiBiT-GPER [1]: reversed

Source: patent US20230312639A1, “GPER PROTEOLYTIC TARGETING CHIMERAS” (University of Iowa Research Foundation, priority 2020, published 2023)
